Laboratory results as given in paper PMC7948503, “Optimization of a peptide ligand for the adhesion GPCR ADGRG2 provides a potent tool to explore receptor biology” (The Journal of Biological Chemistry, 2020).
Non-standard residues stand in square brackets, D forms with d. Residues, ends and D or L forms follow the SMILES beside them. *: point of attachment. FITC = O=C1OC2(c3ccc(O)cc3Oc3cc(O)ccc32)c2ccc(NC(=S)*)cc21; Phe(4-Me) = Cc1ccc(C[C@H](N)C(=O)O)cc1

Legend:
Rluc-ADGRG2-ΔGPS-β W757A = experiment: BRET binding of FITC-VPM-p15; set-up: species or system mouse; settings: HEK293, BRET saturation binding, repeated 6 times
Method: (§1) The binding capacities of ADGRG2 WT or its mutants for VPM-p15 were determined by BRET assay, which has been used in previous studies ([27], [28], [29]). We fused the N terminus of ADGRG2 with a Rluc fragment and coupled FITC to the C terminus of VPM-p15 to facilitate BRET measurement. We stimulated the HEK293 cells transfected with Rluc-ADGRG2-ΔGPS-β wildtype (WT) or mutants by increasing the concentration of FITC-conjugated VPM-p15, and their binding abilities were determined by fitting the data with the saturation curves.
(§2) In the detection of binding capacities of ADGRG2 WT or its mutants for VPM-p15, HEK293 cells were transfected with Rluc-ADGRG2-ΔGPS-β or mutants. Transfected cells were stimulated by increasing the concentration of FITC-conjugated VPM-p15. Binding capacities were determined by BRET, EC50 values of ADGRG2 WT and its mutants for binding VPM-p15 were calculated by GraphPad, and data were normalized by EC50 of WT.

Rluc-ADGRG2-ΔGPS-β W824A = experiment: BRET binding of FITC-VPM-p15; set-up: species or system mouse; settings: HEK293, BRET saturation binding, repeated 6 times
Method: as §1, §2

Rluc-ADGRG2-ΔGPS-β I758A = experiment: BRET binding of FITC-VPM-p15; set-up: species or system mouse; settings: HEK293, BRET saturation binding, repeated 6 times
Method: as §1, §2

ADGRG2-ΔGPS-β L679A = target: T1, ADGRG2-ΔGPS-β L679A (Mus musculus, UniProt Q8CJ12, L693A); experiment: GloSensor cAMP assay; format: cell-based; settings: mutant L679A; HEK293, cAMP Glosensor
T1 construct: expressed in transfected cells; host or cells: HEK293
T1 sequence (Q8CJ12 614-1009 L693A): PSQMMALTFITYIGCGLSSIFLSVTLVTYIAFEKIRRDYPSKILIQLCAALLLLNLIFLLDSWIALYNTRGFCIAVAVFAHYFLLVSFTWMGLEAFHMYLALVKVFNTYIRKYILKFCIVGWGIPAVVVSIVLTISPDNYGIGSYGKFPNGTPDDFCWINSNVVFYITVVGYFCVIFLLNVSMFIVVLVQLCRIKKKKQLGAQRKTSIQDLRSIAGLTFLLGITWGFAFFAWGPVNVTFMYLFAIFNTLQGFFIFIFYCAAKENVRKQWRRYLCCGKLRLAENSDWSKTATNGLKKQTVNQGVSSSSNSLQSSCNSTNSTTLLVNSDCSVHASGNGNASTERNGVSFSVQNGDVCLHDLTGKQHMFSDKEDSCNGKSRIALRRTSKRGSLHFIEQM
From the text: (§3) Wildtype ADGRG2 full-length (ADGRG2-FL) was cloned from mouse total cDNA libraries using the following primers: forward, […]; reverse, […], and then ADGRG2-FL, ADGRG2 C-terminal truncation mutant (ADGRG2-β), and ADGRG2-ΔGPS-β (the entire ECD of ADGRG2 was deleted) were subcloned into the pcDNA3.1 expression vector. The ADGRG2-ΔGPS-β mutants (T610A, Y611A, C614A, S661A, W662A, I663A, L665A, Y666A，N667A, F671A, L679A, L683A, I730A, V731A, F741A, F747A, W757A, I758A, N759A, S760A, V762A, F764A, Y765A, V768A, V769A, F772A, V774A, W824A, F826A, F828A, F829A, V834A, V836A, F838A, M839A, I844A, F845A) were generated using a QuikChange Mutagenesis Kit (Stratagene). All mutations were verified by DNA sequencing.
(§4) The Glosensor cAMP assay was performed as described ([6], [39], [40]). HEK293 cells were transfected with the GloSensor plasmid and the desired expression plasmids in 24-well dishes. Twenty-four hours after transfection, the cells were plated on 96-well plates at a cell density of 20,000 cells/well. The cells were maintained in Dulbecco’s modified Eagle’s medium for another 24 h, washed with PBS, and then incubated with 100 μl of solution containing 10% fetal bovine serum, 2% (v/v) GloSensor cAMP reagent, and 88% CO2-independent medium in each well for 2 h. The cAMP signal was examined using a luminescence counter (Mithras LB 940).

ADGRG2-ΔGPS-β Y611A = target: T2, ADGRG2-ΔGPS-β Y611A (Mus musculus, UniProt Q8CJ12, Y625A); experiment: GloSensor cAMP assay; format: cell-based; settings: mutant Y611A; HEK293, cAMP Glosensor
T2 construct: expressed in transfected cells; host or cells: HEK293
T2 sequence (Q8CJ12 614-1009 Y625A): as the sequence (Q8CJ12 614-1009 L693A) above, with Y12A, A80L counted along it
From the text: as §3, §4

ADGRG2-ΔGPS-β F838A = target: T3, ADGRG2-ΔGPS-β F838A (Mus musculus, UniProt Q8CJ12, F852A); experiment: GloSensor cAMP assay; format: cell-based; settings: mutant F838A; HEK293, cAMP Glosensor
T3 construct: expressed in transfected cells; host or cells: HEK293
T3 sequence (Q8CJ12 614-1009 F852A): as the sequence (Q8CJ12 614-1009 L693A) above, with A80L, F239A counted along it
From the text: as §3, §4

ADGRG2-ΔGPS-β L665A = target: T4, ADGRG2-ΔGPS-β L665A (Mus musculus, UniProt Q8CJ12, L679A); experiment: GloSensor cAMP assay; format: cell-based; settings: mutant L665A; HEK293, cAMP Glosensor
T4 construct: expressed in transfected cells; host or cells: HEK293
T4 sequence (Q8CJ12 614-1009 L679A): as the sequence (Q8CJ12 614-1009 L693A) above, with L66A, A80L counted along it
From the text: as §3, §4

ADGRG2-ΔGPS-β V836A = target: T5, ADGRG2-ΔGPS-β V836A (Mus musculus, UniProt Q8CJ12, V850A); experiment: GloSensor cAMP assay; format: cell-based; settings: mutant V836A; HEK293, cAMP Glosensor
T5 construct: expressed in transfected cells; host or cells: HEK293
T5 sequence (Q8CJ12 614-1009 V850A): as the sequence (Q8CJ12 614-1009 L693A) above, with A80L, V237A counted along it
From the text: as §3, §4

ADGRG2-ΔGPS-β F772A = target: T6, ADGRG2-ΔGPS-β F772A (Mus musculus, UniProt Q8CJ12, F786A); experiment: GloSensor cAMP assay; format: cell-based; settings: mutant F772A; HEK293, cAMP Glosensor
T6 construct: expressed in transfected cells; host or cells: HEK293
T6 sequence (Q8CJ12 614-1009 F786A): as the sequence (Q8CJ12 614-1009 L693A) above, with A80L, F173A counted along it
From the text: as §3, §4

ADGRG2-ΔGPS-β F826A = target: T7, ADGRG2-ΔGPS-β F826A (Mus musculus, UniProt Q8CJ12, F840A); experiment: GloSensor cAMP assay; format: cell-based; settings: mutant F826A; HEK293, cAMP Glosensor
T7 construct: expressed in transfected cells; host or cells: HEK293
T7 sequence (Q8CJ12 614-1009 F840A): as the sequence (Q8CJ12 614-1009 L693A) above, with A80L, F227A counted along it
From the text: as §3, §4

ADGRG2-ΔGPS-β N759A = target: T8, ADGRG2-ΔGPS-β N759A (Mus musculus, UniProt Q8CJ12, N773A); experiment: GloSensor cAMP assay; format: cell-based; settings: mutant N759A; HEK293, cAMP Glosensor
T8 construct: expressed in transfected cells; host or cells: HEK293
T8 sequence (Q8CJ12 614-1009 N773A): as the sequence (Q8CJ12 614-1009 L693A) above, with A80L, N160A counted along it
From the text: as §3, §4

ADGRG2-ΔGPS-β L683A = target: T9, ADGRG2-ΔGPS-β L683A (Mus musculus, UniProt Q8CJ12, L697A); experiment: GloSensor cAMP assay; format: cell-based; settings: mutant L683A; HEK293, cAMP Glosensor
T9 construct: expressed in transfected cells; host or cells: HEK293
T9 sequence (Q8CJ12 614-1009 L697A): as the sequence (Q8CJ12 614-1009 L693A) above, with A80L, L84A counted along it
From the text: as §3, §4

ADGRG2-ΔGPS-β F747A = target: T10, ADGRG2-ΔGPS-β F747A (Mus musculus, UniProt Q8CJ12, F761A); experiment: GloSensor cAMP assay; format: cell-based; settings: mutant F747A; HEK293, cAMP Glosensor
T10 construct: expressed in transfected cells; host or cells: HEK293
T10 sequence (Q8CJ12 614-1009 F761A): as the sequence (Q8CJ12 614-1009 L693A) above, with A80L, F148A counted along it
From the text: as §3, §4

ADGRG2-ΔGPS-β V834A = target: T11, ADGRG2-ΔGPS-β V834A (Mus musculus, UniProt Q8CJ12, V848A); experiment: GloSensor cAMP assay; format: cell-based; settings: mutant V834A; HEK293, cAMP Glosensor
T11 construct: expressed in transfected cells; host or cells: HEK293
T11 sequence (Q8CJ12 614-1009 V848A): as the sequence (Q8CJ12 614-1009 L693A) above, with A80L, V235A counted along it
From the text: as §3, §4

ADGRG2-ΔGPS-β I758A = target: T12, ADGRG2-ΔGPS-β I758A (Mus musculus, UniProt Q8CJ12, I772A); experiment: GloSensor cAMP assay; format: cell-based; settings: mutant I758A; HEK293, cAMP Glosensor
T12 construct: expressed in transfected cells; host or cells: HEK293
T12 sequence (Q8CJ12 614-1009 I772A): as the sequence (Q8CJ12 614-1009 L693A) above, with A80L, I159A counted along it
From the text: as §3, §4

ADGRG2-ΔGPS-β W757A = target: T13, ADGRG2-ΔGPS-β W757A (Mus musculus, UniProt Q8CJ12, W771A); experiment: GloSensor cAMP assay; format: cell-based; settings: mutant W757A; HEK293, cAMP Glosensor
T13 construct: expressed in transfected cells; host or cells: HEK293
T13 sequence (Q8CJ12 614-1009 W771A): as the sequence (Q8CJ12 614-1009 L693A) above, with A80L, W158A counted along it
From the text: as §3, §4

Row | EC50 (ADGRG2-ΔGPS-β L679A) | EC50 (ADGRG2-ΔGPS-β Y611A) | EC50 (ADGRG2-ΔGPS-β F838A) | EC50 (ADGRG2-ΔGPS-β L665A) | EC50 (ADGRG2-ΔGPS-β V836A) | EC50 (ADGRG2-ΔGPS-β F772A) | EC50 (ADGRG2-ΔGPS-β F826A) | EC50 (ADGRG2-ΔGPS-β N759A) | EC50 (ADGRG2-ΔGPS-β L683A) | EC50 (ADGRG2-ΔGPS-β F747A) | EC50 (ADGRG2-ΔGPS-β V834A) | EC50 (ADGRG2-ΔGPS-β I758A) | EC50 (ADGRG2-ΔGPS-β W757A) | Structure (SMILES) | Binding to mutant (result in words across EC50 / Fmut / Bmax) (Rluc-ADGRG2-ΔGPS-β W757A) | Binding to mutant (result in words across EC50 / Fmut / Bmax) (Rluc-ADGRG2-ΔGPS-β W824A) | Binding to mutant (result in words across EC50 / Fmut / Bmax) (Rluc-ADGRG2-ΔGPS-β I758A)
1 |  |  |  |  |  |  |  |  |  |  |  |  |  | CC[C@H](C)[C@H](NC(=O)CNC(=O)[C@H](Cc1ccc(C)cc1)NC(=O)[C@H](CO)NC(=O)[C@@H](N)C(C)C)C(=O)N[C@@H](CC(C)C)C(=O)N[C@@H](CC(C)C)C(=O)N[C@@H](CC(=O)O)C(=O)N[C@@H](CC(C)C)C(=O)N[C@@H](CO)C(=O)N[C@@H](CCCNC(=N)N)C(=O)N[C@H](C(=O)N[C@@H](CO)C(=O)N[C@@H](CC(C)C)C(=O)N1CCC[C@H]1C(=O)N[C@@H](CCCCNC(=S)Nc1ccc2c(c1)C(=O)OC21c2ccc(O)cc2Oc2cc(O)ccc21)C(=O)O)[C@@H](C)O [FITC-VPM-p15] (H-VS[Phe(4-Me)]GILLDLSRTSLPK(FITC)-OH; N-terminus and C-terminus assumed) | No binding | No binding | No binding
2 | 1160 nM | 1060 nM | 1700 nM | 1590 nM | 4130 nM | 2180 nM | 6600 nM | 4760 nM | 1310 nM | 1130 nM | 1140 nM | 13800 nM | 14200 nM | CC[C@H](C)[C@H](NC(=O)CNC(=O)[C@H](Cc1ccc(C)cc1)NC(=O)[C@H](CO)NC(=O)[C@@H](N)C(C)C)C(=O)N[C@@H](CC(C)C)C(=O)N[C@@H](CC(C)C)C(=O)N[C@@H](CC(=O)O)C(=O)N[C@@H](CC(C)C)C(=O)N[C@@H](CO)C(=O)N[C@@H](CCCNC(=N)N)C(=O)N[C@H](C(=O)N[C@@H](CO)C(=O)N[C@@H](CC(C)C)C(=O)N1CCC[C@H]1C(=O)O)[C@@H](C)O [VPM-p15] (H-VS[Phe(4-Me)]GILLDLSRTSLP-OH) |  |  | 
